Experimental data from patent publication US20230331803A1, “CO-AGONISTS OF THE GLP-1 AND AMYLIN RECEPTORS” (priority 2020, published 2023).
Entries after “also recorded” stand apart in the source; their conditions may differ. Where two headings read alike, the source gives them in different places. Starred links: 1 amine or outer side, 2 acyl side, 3 side chain; linkers in the order of their positions; H or OH if unused. Non-standard residues stand in square brackets, D forms with d. Groups on a side chain read outwards from the residue. *: point of attachment. Decanoyl(10-(4-HOOC-PhO)) = O=C(O)c1ccc(OCCCCCCCCCC(=O)*)cc1; C20 diacid = O=C(O)CCCCCCCCCCCCCCCCCCC(=O)*; C18 diacid = O=C(O)CCCCCCCCCCCCCCCCC(=O)*; C16 diacid = O=C(O)CCCCCCCCCCCCCCC(=O)*; γGlu = O=C(O)[C@H](CCC(=O)[*:2])N[*:1]; Trx = NC[C@H]1CC[C@H](C(=O)O)CC1; AEEA = NCCOCCOCC(=O)O; Aib = CC(C)(N)C(=O)O; Ahx = NCCCCCC(=O)O

Tests used:
human GLP-1 receptor = target: T1, human GLP-1 receptor (Homo sapiens, UniProt P43220); assay: Human GLP-1 receptor in vitro potency assay (CRE-luciferase reporter, BHK cells); assay type: cell-based
T1 construct: expressed in transfected cells; host or cells: BHK (Baby Hamster Kidney) cells, clone BHK 467-12A KZ-10, stably transfected, with CRE-luciferase reporter
Method: It is thus possible to measure GLP-1 receptor activity using a CRE-luciferase reporter gene introduced into Baby Hamster Kidney (BHK) cells co-expressing the GLP-1 receptor.
Cells were aliquoted and stored at -180° C. until use.
Plates were sealed and incubated at room temperature with gentle shaking for 30 minutes while protected from light. Luminescence was detected on a luminescence plate reader e.g. a Synergy 2 (BioTek).

Sprague Dawley (SD) rats = assay: Acute food intake in ad libitum fed rats after a single subcutaneous administration; assay type: in vivo, rat; details: for Food intake relative to vehicle (%) 0-24 hr, 10 nmol/kg / Food intake relative to vehicle (%) 24-48 hr, 10 nmol/kg: rat, single administration;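 as to all read-outs here: food intake monitored in the HM2 system, three rats per cage kept on a reversed light cycle, with food and water freely available after the subcutaneous dose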
Excerpt: Sprague Dawley (SD) rats from Taconic Europe, Denmark were used for the acute food intake experiments, wherein the principles of laboratory animal care were followed.
The rats arrived at least 10-14 days before the start of the experiment to allow acclimatisation to experimental settings. During this period, the animals were handled at least 2 times. Immediately upon arrival, rats were put on a reversed light cycle (dark from 11am - 11pm) and put in the HM2 system and ID chipped. Three rats were housed in each cage. […] The rats were dosed once according to body weight with a 0.01-3 mg/kg solution administered subcutaneously (sc). The time of dosing was recorded for each group.
After dosing, the rats were returned to their home cages, where they had access to food and water. […] At the end of the experimental session, the animals were euthanised.

[1] = target: T2, human amylin receptor (hAmyR3) (Homo sapiens, UniProt O60896+P30988); assay: Human amylin receptor in vitro potency assay (CRE-luciferase reporter, BHK cells); assay type: cell-based;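 also: BHK cells expressing human calcitonin receptor plus RAMP3 (amylin-3 receptor) with a CRE-luciferase reporter, agonist activity read as luminescence from cAMP-driven transcription, 7-point serial dilutions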
T2 construct: host or cells: BHK cells (Hollex-1 line: human calcitonin receptor (a) + CRE-Luc), further transfected with human RAMP3

[2] = Pharmacokinetic studies in Beagle dogs after oral administration of SNAC-based tablets; assay type: in vivo; details: for Tmax / half-life: male, Beagle
Method: To be able to evaluate oral exposure following tablet dosing, tablet compositions comprising the test substance and SNAC (sodium N-(8-(2-hydroxybenzoyl)amino)caprylate) were prepared by mixing test substance with roller compacted SNAC and magnesium stearate as, e.g., described in WO 2019/149880. The amount of SNAC in the tablet composition was 100-300 mg, the amount of magnesium stearate in the tablet composition was 7.7 mg, and the target amount of each test substance in the tablet composition was 3-4 mg.
Pharmacokinetic (PK) studies in Beagle dogs were conducted to determine the exposure of the GLP-1 receptor-amylin receptor co-agonist after peroral administration.
For the pharmacokinetic studies male Beagle dogs were used, 2-7, or 1 to 5, years of age and weighing approximately 10-15, such as 10-12, kg at the start of the studies. The dogs were group housed in pens (12 hours light: 12 hours dark),and fed individually and restrictedly once daily with Royal Canin Medium Adult dog (Royal Canin Products, China Branch, or Brogaarden A/S, Denmark). Exercise and group social were permitted daily, whenever possible. The dogs were used for repeated pharmacokinetic studies with a suitable wash-out period between successive dosing. An appropriate acclimatisation period was given prior to initiation of the first pharmacokinetic study. All handling, dosing and blood sampling of the animals were performed by trained and skilled staff. Before the studies the dogs were fasted overnight and from 0 to 4 h after dosing. Besides, the dogs were restricted to water 1 hour before dosing until 4 hours after dosing, but otherwise have ad libitum access to water during the whole period.
The tablets used for the p.o. studies described herein were immediate release SNAC-based tablets dosed orally.
The tablets were administered in the following manner: 10 min prior to tablet administration the dogs may be dosed subcutaneously with approximately 3 nmol/kg of SEQ ID NO: 237, tablets were placed in the back of the mouth of the dog to prevent chewing. The mouth was then closed, and 10 mL of tap water was given by a syringe or gavage to facilitate swallowing of the tablet.
Blood was sampled at predefined time points for up till 240 hours, such as up till 10 hr, post dosing to adequately cover the full plasma concentration-time absorption profile of the GLP-1 agonist.
For each blood sampling time point approximately 0.8 mL of whole blood was collected in a 1.5 mL EDTA coated tube, and the tube was gently turned to allowing mixing of the sample with the EDTA. Blood samples (for example 0.8 mL) were collected in EDTA buffer (8 mM) and then centrifuged at 4° C. and 2000 G for 10 minutes. Plasma was pipetted into Micronic tubes on dry ice, and kept at -20° C. until analysis.
Blood samples were taken as appropriate, for example from a venflon in the cephalic vein in the front leg for the first 2 hours and then with syringe from the jugular vein for the rest of the time points (the first few drops were allowed to drain from the venflon to avoid heparin saline from the venflon in the sample).
Plasma concentration of the GLP-1 receptor-amylin receptor co-agonists were determined using LCMS. Individual plasma concentration-time profiles were analysed by a non-compartmental model in WinNonlin v. 5.0 or Phoenix v. 6.2 or 6.3 (Pharsight Inc., Mountain View, CA, USA), or other relevant software for PK analysis.
The individual plasma concentration-time profiles were analysed by non-compartmental analysis (NCA).

[3] = Table 4a, BHK cells expressing human GLP-1R, CRE-Luc, 3 hours, read-out: Human GLP-1R potency [EC50 (pM)]
[4] = Table 4a, BHK hAmyR3/CRE-Luc cells, 3 hours, read-out: Human AmyR3 potency [EC50 (pM)]
[5] = dogs, oral administration (tablet)
[6] = dog, in vivo, dogs, oral administration (tablet), read-out: Tmax
[7] = dog, in vivo, dogs, oral administration (tablet), read-out: T½ (converted)

T2 sequence (P30988 25-474): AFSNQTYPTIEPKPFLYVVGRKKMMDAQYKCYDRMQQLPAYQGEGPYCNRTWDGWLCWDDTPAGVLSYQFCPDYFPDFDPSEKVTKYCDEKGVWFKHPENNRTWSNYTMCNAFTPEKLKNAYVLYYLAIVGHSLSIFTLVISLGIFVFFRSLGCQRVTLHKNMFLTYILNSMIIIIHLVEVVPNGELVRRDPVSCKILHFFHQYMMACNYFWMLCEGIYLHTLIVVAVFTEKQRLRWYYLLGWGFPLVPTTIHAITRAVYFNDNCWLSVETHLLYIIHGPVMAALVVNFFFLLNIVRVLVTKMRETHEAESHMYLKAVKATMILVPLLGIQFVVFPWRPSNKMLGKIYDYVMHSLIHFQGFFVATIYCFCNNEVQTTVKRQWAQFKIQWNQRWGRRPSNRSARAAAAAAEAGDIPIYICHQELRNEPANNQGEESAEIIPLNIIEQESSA
T2 sequence (O60896 24-148): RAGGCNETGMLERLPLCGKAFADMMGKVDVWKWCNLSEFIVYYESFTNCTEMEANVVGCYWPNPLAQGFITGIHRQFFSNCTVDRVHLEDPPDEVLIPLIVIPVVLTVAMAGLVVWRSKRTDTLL
T1 sequence (P43220 24-463): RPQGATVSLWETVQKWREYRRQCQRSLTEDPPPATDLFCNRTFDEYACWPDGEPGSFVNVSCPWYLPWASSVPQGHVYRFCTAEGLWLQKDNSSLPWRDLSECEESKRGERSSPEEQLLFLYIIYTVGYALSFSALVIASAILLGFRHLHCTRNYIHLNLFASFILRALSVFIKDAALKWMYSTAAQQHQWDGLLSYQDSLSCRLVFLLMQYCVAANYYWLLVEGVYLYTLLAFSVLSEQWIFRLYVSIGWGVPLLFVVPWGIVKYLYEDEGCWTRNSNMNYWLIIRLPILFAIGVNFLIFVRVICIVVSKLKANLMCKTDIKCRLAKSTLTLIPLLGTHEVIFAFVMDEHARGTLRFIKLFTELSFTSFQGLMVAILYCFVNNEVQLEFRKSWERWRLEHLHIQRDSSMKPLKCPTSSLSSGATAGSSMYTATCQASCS

Compound	EC50 (human GLP-1 receptor; [3]) [pM]	EC50 [1, 4] [pM]	AUC/D ([2]; dog, in vivo, po) [kg·h/L]	Cmax/D ([2]; dog, in vivo, po) [kg/L]	Tmax ([2]; dog, in vivo, po, Tmax (hr)) [h]	half-life ([2]; dog, in vivo, po, T½ (hr)) [h]	further results
H-H[Aib]EGTFTSDVSSYLEGQAAK([AEEA-AEEA-γGlu-Trx-C20 diacid])EFIAWLVRGRGGGGGGGGGEASELSTAALGRLSAELHELATLPRTETGSGSP-NH2 [Compound 0095]	7.4	6.6	–	–	–	–	Food intake relative to vehicle (%) 0-24 hr, 10 nmol/kg (Sprague Dawley (SD) rats; Table 6a): 55%; Food intake relative to vehicle (%) 24-48 hr, 10 nmol/kg (Sprague Dawley (SD) rats; Table 6a): 95%
H-H[Aib]EGTFTSDVSSYLEGQAAK([AEEA-AEEA-γGlu-C18 diacid])EFIAWLVRGRGGGGGGGGGEASELSTAALGRLSAELHELATLPRTETGSGSP-NH2 [Compound 0052]	17	19.4	–	–	–	–	Food intake relative to vehicle (%) 0-24 hr, 10 nmol/kg (Sprague Dawley (SD) rats; Table 6a): 42%; Food intake relative to vehicle (%) 24-48 hr, 10 nmol/kg (Sprague Dawley (SD) rats; Table 6a): 86%
H-H[Aib]EGTFTSDVSSYLEGQAAKEFIAWLVRGRK([AEEA-AEEA-γGlu-C18 diacid])GGEASELSTAALGRLSAELHELATLPRTETGSGSP-NH2 [Compound 0042]	16.2	10.8	–	–	–	–	Food intake relative to vehicle (%) 0-24 hr, 10 nmol/kg (Sprague Dawley (SD) rats; Table 6a): 52%; Food intake relative to vehicle (%) 24-48 hr, 10 nmol/kg (Sprague Dawley (SD) rats; Table 6a): 101%
CC[C@H](C)[C@H](NC(=O)[C@H](Cc1ccccc1)NC(=O)[C@H](CCC(=O)O)NC(=O)[C@H](CCCNC(=N)N)NC(=O)[C@H](C)NC(=O)[C@H](C)NC(=O)[C@H](CCC(N)=O)NC(=O)[C@H](CCC(=O)O)NC(=O)[C@H](CCC(=O)O)NC(=O)[C@H](CC(C)C)NC(=O)[C@H](Cc1ccc(O)cc1)NC(=O)[C@H](CO)NC(=O)[C@H](CO)NC(=O)[C@H](CCCCNC(=O)COCCOCCNC(=O)COCCOCCNC(=O)CC[C@H](NC(=O)[C@H]1CC[C@H](CNC(=O)CCCCCCCCCCCCCCCCCCC(=O)O)CC1)C(=O)O)NC(=O)[C@H](CC(=O)O)NC(=O)[C@H](CO)NC(=O)[C@@H](NC(=O)[C@H](Cc1ccccc1)NC(=O)[C@@H](NC(=O)CNC(=O)[C@H](CCC(=O)O)NC(=O)[C@H](C)NC(=O)[C@@H](N)Cc1c[nH]cn1)[C@@H](C)O)[C@@H](C)O)C(=O)N[C@@H](CCC(=O)O)C(=O)N[C@@H](Cc1c[nH]c2ccccc12)C(=O)N[C@@H](CC(C)C)C(=O)N[C@H](C(=O)N[C@@H](CCCNC(=N)N)C(=O)NCC(=O)N[C@@H](CCCNC(=N)N)C(=O)NCC(=O)N[C@@H](CCC(=O)O)C(=O)N[C@@H](C)C(=O)N[C@@H](CO)C(=O)N[C@@H](CCC(=O)O)C(=O)N[C@@H](CC(C)C)C(=O)N[C@@H](CO)C(=O)N[C@H](C(=O)N[C@@H](C)C(=O)N[C@@H](C)C(=O)N[C@@H](CC(C)C)C(=O)NCC(=O)N[C@@H](CCCNC(=N)N)C(=O)N[C@@H](CC(C)C)C(=O)N[C@@H](CO)C(=O)N[C@@H](C)C(=O)N[C@@H](CCC(=O)O)C(=O)N[C@@H](CC(C)C)C(=O)N[C@@H](Cc1c[nH]cn1)C(=O)N[C@@H](CCC(=O)O)C(=O)N[C@@H](CC(C)C)C(=O)N[C@@H](C)C(=O)N[C@H](C(=O)N[C@@H](CC(C)C)C(=O)N1CCC[C@H]1C(=O)N[C@@H](CCCNC(=N)N)C(=O)N[C@H](C(=O)N[C@@H](CCC(=O)O)C(=O)N[C@H](C(=O)NCC(=O)N[C@@H](CO)C(=O)NCC(=O)N[C@@H](CO)C(=O)N1CCC[C@H]1C(N)=O)[C@@H](C)O)[C@@H](C)O)[C@@H](C)O)[C@@H](C)O)C(C)C [Compound 0431]	–	–	–	–	–	–	EC50 (human GLP-1 receptor): 10.9 pM; EC50 [1]: 11.9 pM; AUC/D [2, 5]: 9.75 kg·h/L; Cmax/D [2, 5]: 0.29 kg/L; Tmax [2, 6]: 1.5 h; half-life [2, 7]: 34 h
H-HWEGTFTSDVSSYLEEQAAREFIEWLVRGK([AEEA-AEEA-γGlu-Decanoyl(10-(4-HOOC-PhO))])GEGGGGGASELSTAALGRLSK([AEEA-AEEA-γGlu-Decanoyl(10-(4-HOOC-PhO))])ELHELATLPRTETGSGSP-NH2 [Compound 0233]	–	–	–	–	–	–	EC50 (human GLP-1 receptor): 46.4 pM; EC50 [1]: 182 pM; AUC/D [2, 5]: 8.43 kg·h/L; Cmax/D [2, 5]: 0.3 kg/L; Tmax [2, 6]: 1.5 h; half-life [2, 7]: 43 h
H-H[Aib]EGTFTSDVSK([AEEA-AEEA-γGlu-C16 diacid])YLEEQAARK([AEEA-AEEA-γGlu-C16 diacid])FIAWLVRGRQEGGGGGASELSTAALGRLSAELHELATLPRTETGSGSP-NH2 [Compound 0575]	5.6	8.3	27.60	0.34	1.5	91	–
H-H[Aib]EGTFTSDVSK([Ahx-γGlu-γGlu-C16 diacid])YLEEQAARK([Ahx-γGlu-γGlu-C16 diacid])FIEWLVRGAAEASELSTAALGRLSAELHELATLPRTETGSGSP-NH2 [Compound 0630]	7.1	110	33.33	0.53	1.5	73	–
H-H[Aib]EGTFTSDK([AEEA-AEEA-γGlu-C16 diacid])SSYLEEQAAREFIAWLVRGRGGGGGEASELSTAALGRLSAELHK([AEEA-AEEA-γGlu-C16 diacid])LATLPRTETGSGSP-NH2 [Compound 0259]	15.8	12	31.73	0.48	1.5	97	–
H-HWEGTFTSDVSSYLEEQAAREFIEWLVRGK([AEEA-AEEA-γGlu-Decanoyl(10-(4-HOOC-PhO))])GEGGGGGASELSTAALGRLSAELHELK([AEEA-AEEA-γGlu-Decanoyl(10-(4-HOOC-PhO))])TLPRTETGSGSP-NH2 [Compound 0234]	–	–	–	–	–	–	EC50 (human GLP-1 receptor): 38.9 pM; EC50 [1]: 38.4 pM; AUC/D [2, 5]: 8.00 kg·h/L; Cmax/D [2, 5]: 0.35 kg/L; Tmax [2, 6]: 1 h; half-life [2, 7]: 31 h
H-H[Aib]EGTFTSDVSSYLEEQAAREFIAWLVRGRK([AEEA-AEEA-γGlu-Trx-C20 diacid])GGGGEASELSTAALGRPSAELHELATLPRTETGSGSP-NH2 [Comparator compound 0192, reference compound]	–	–	–	–	–	–	Food intake relative to vehicle (%) 0-24 hr, 10 nmol/kg (Sprague Dawley (SD) rats; Table 6b): 71%; Food intake relative to vehicle (%) 24-48 hr, 10 nmol/kg (Sprague Dawley (SD) rats; Table 6b): 67%; Inhibition of food intake, in words (Sprague Dawley (SD) rats; rats, 10 nmol/kg): significantly less than in the case of compound 0120; EC50 ([1]; Table 4c, further comparator compounds, read-out: Human AmyR3 potency [EC50 (pM)]): ≥ 10000 pM; Ability to agonise the amylin receptor, in words ([1]; Tables 4a-4c): impaired their ability to agonise (activate) the amylin receptor; also recorded: impaired amylin activity
H-H[Aib]EGTFTSDVSK([AEEA-AEEA-γGlu-C16 diacid])YLEEQAAREFIAWLVRGRK([AEEA-AEEA-γGlu-C16 diacid])GGGGEASELSTAALGRLSAELHELATLPRTETGSGSP-NH2 [Compound 0528]	3.8	22	37.01	0.5	1.5	107	–
H-H[Aib]EGTFTSDVSSYLEEQAAREFIAWLVRGRK([AEEA-AEEA-γGlu-Trx-C20 diacid])GGEASELSTAALGRLSAELHELATLPRTETGSGSP-NH2 [Compound 0512]	7.6	10.8	3.21	0.13	2	21	–
H-H[Aib]EGTFTSDVSSYLEGQAAREFIAWLVRGRGQEPK([AEEA-AEEA-γGlu-C20 diacid])GQAPEASELSTAALGRLSAELHELATLPRTETGSGSP-NH2 [Compound 0529]	6.4	14.1	19.71	0.3	4	68	–
